According to ChEMBL document CHEMBL1141322, “Antiprotozoal polyacetylenes from the Tanzanian medicinal plant Cussonia zimmermannii” (J Nat Prod, 2007):

Columns and labels:
[1] = test system: Plasmodium falciparum; experiment: Antiparasitic activity against Plasmodium falciparum; assay type: functional, organism-based
[2] = test system: Trypanosoma cruzi; experiment: Antiparasitic activity against Trypanosoma cruzi; assay type: functional, organism-based
[3] = test system: Trypanosoma brucei rhodesiense; experiment: Antiparasitic activity against Trypanosoma brucei rhodesiense by Alamar blue assay; assay type: functional, organism-based
[4] = test system: L6; experiment: Cytotoxicity against rat L6 cells by Alamar blue assay; assay type: cell-based
[5] = test system: Leishmania donovani; experiment: Antileishmanial activity against Leishmania donovani in mouse macrophages; assay type: functional, organism-based
[6] = test system: Leishmania donovani; experiment: Antileishmanial activity against Leishmania donovani axenic amastigotes; assay type: functional, organism-based
[7] = Selectivity index, ratio of IC50 for rat L6 cells to IC50 for Leishmania donovani in mouse macrophages; assay type: functional
[8] = Selectivity index, ratio of IC50 for rat L6 cells to IC50 for Trypanosoma cruzi; assay type: functional

Row | Structure (SMILES) | IC50 [1] | IC50 [2] | IC50 [3] | IC50 [4] | IC50 [5] | IC50 [6] | Ratio IC50 [7] | Ratio IC50 [8]
1 | C=CC(C#CC#CC(O)CCCCCCCCC)OC(C)=O (centres undefined) | 1400 nM | 650 nM | 460 nM | 12000 nM | 320 nM | 130 nM | 37 | 18
2 | C=CC(C#CC#CC(O)CCCCCCCCCCOC(C)=O)OC(C)=O (centres undefined) | 2200 nM | 400 nM | 1100 nM | 58000 nM | 2300 nM | 140 nM | 26 | 150
3 | CCCCCCCCCC(O)C#CC#CC(CC)OC(C)=O (centres undefined) | 19000 nM | 26000 nM | 18000 nM | 54000 nM | > 10000 nM | 7800 nM | <5.5 | 2.1
4 | C[C@@H]1CC[C@H]2[C@@H](C)C(=O)O[C@@H]3O[C@@]4(C)CC[C@@H]1[C@]32OO4 [ARTEMISININ] | 4.3 nM |  |  |  |  |  |  | 
5 | O=C(Cn1ccnc1[N+](=O)[O-])NCc1ccccc1 [BENZNIDAZOLE] |  | 2400 nM |  |  |  |  |  | 
6 | Nc1nc(N)nc(Nc2ccc([As]3SCC(CO)S3)cc2)n1 (centres undefined) [MELARSOPROL] |  |  | 5.8 nM |  |  |  |  | 
7 | CCCCCCCCCCCCCCCCOP(=O)([O-])OCC[N+](C)(C)C [MILTEFOSINE] |  |  |  |  | 710 nM |  |  | 
